Earlier results in US11103473B2, “Treatment and prevention of autism and autism spectrum disorders” (ASDERA LLC, priority 2013, dated 2021).
Where two headings read alike, the source gives them in different places. Each block holds one compound with its values, some of them ahead of it.

Tests used:
[1] = for ulcerative index (UI): equimolar dose, prodrug vs parent NSAID
[2] = prodrug vs parent DCF
[3] = target: albumin (Homo sapiens, UniProt P02768)
[4] = test system: animal models of seizures; details: in vivo
[5] = for Cmax (μg/ml) / Tmax (h) / % excreted (5 d) / t1/2 (h): mean; for Cmax (μg/ml) / Tmax (h): Ito (1994); for % excreted (5 d): Sato (1997)
[6] = pH 7.1
[7] = not given; remark: listed apart in the source
[8] = not given; remark: listed apart in the source
[9] = test system: Rat: Hint paw
[10] = test system: Mouse: writhing; details: relative to parent
[11] = not given; remark: listed apart in the source
[12] = relative to parent, animal models

albumin, sequence (P02768 25-609): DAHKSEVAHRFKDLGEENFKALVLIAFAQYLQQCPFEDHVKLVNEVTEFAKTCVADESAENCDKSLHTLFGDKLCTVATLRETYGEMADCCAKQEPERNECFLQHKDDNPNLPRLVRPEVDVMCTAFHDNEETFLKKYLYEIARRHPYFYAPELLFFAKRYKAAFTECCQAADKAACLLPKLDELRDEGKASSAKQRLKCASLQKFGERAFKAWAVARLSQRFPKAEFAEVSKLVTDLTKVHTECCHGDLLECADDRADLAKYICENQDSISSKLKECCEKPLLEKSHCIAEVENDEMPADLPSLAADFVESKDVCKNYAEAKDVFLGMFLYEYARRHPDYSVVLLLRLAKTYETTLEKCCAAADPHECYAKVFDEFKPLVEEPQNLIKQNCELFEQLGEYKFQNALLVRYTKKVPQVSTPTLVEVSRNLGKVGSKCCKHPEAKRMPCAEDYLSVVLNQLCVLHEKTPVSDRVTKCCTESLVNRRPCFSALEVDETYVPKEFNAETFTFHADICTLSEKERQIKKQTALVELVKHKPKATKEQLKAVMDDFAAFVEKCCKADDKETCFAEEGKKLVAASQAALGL

t1/2 [h] pH 7.5 (serum/plasma) [7]: “shorter
t1/2 [h] pH 1.2 (SGF) ([8]; simulated gi fluid): “suffi-
GI risk vs MFA ([1]; in vivo): “no
Compound: CC(=O)Nc1ccc(OC(=O)c2ccccc2Nc2cccc(C)c2C)cc1 [MFA-APAP Without spacer]
Rat: Hint paw vs MFA ([9]; relative to parent): “better”

t1/2 [h] pH 1.2 (SGF) ([8]; simulated gi fluid): 18.7 h
half-life in simulated gastric fluid ([8]; simulated gi fluid, pH 1.2): 18.69 h
GI risk vs MFA ([1]; in vivo): 30%
half-life in simulated intestinal fluid ([11]; simulated gi fluid, pH 7.4): 8.98 h
t1/2 [h] pH 7.5 (SIF) ([11]; simulated gi fluid): 9.0 h
Compound: Cc1cccc(Nc2ccccc2C(=O)OCc2c(C(C)C)c(=O)n(-c3ccccc3)n2C)c1C [MFA-PPA Without spacer]
Mouse: writhing vs MFA [10]: 63%
average number of ulcers ([1]; in vivo): 1.00
Rat: Hint paw vs MFA ([9]; @2-6 h): ≈60%

t1/2 [h] pH 1.2 (SGF) ([8]; simulated gi fluid): 23.1 h
GI risk vs MFA [1, 12]: 60%
t1/2 [h] pH 7.5 (SIF) ([11]; simulated gi fluid): 7.1 h
Compound: Cc1ccc(C(C)C)c(OC(=O)c2ccccc2Nc2cccc(C)c2C)c1 [MFA-thymol]
Mouse: writhing vs MFA [10]: 150%
ulcer index vs parent drug ([1]; in vivo): better ulcer index than the parent drug
Rat: Hint paw vs MFA ([9]; relative to parent): 125%

Further lines, the compound ahead of its results:

Compound: CC(=O)Oc1ccccc1C(=O)O [Aspirin, 2-(acetyloxy)benzoic acid]
ulcerative index (UI) [1]: 57.4

Compound: O=C(O)Cc1ccccc1Nc1c(Cl)cccc1Cl [DCF, 2-(2-[(2,6-dichlorophenyl)amino]phenyl)acetic acid]
gastric damage ([1]; 50 mg/kg): severe gastric damage
gastric damage ([1]; 200 mg/kg): markedly more damage
Cmax [2]: 20.19 ± 6.01 µg/mL

Compound: CC(C)c1c(CO)n(C)n(-c2ccccc2)c1=O [HMP, 3-hydroxymethyl propyphenazon]
average number of ulcers ([1]; in vivo): 1.25

Compound: Cc1cccc(Nc2ccccc2C(=O)O)c1C [MFA, 2-[(2,3-dimethylphenyl)amino]benzoic acid]
bound to albumin [3]: > 90%
efficacy in animal models of seizures [4]: shown efficacy
average number of ulcers ([1]; in vivo): 3.17
Cmax ([5]; Healthy Adults (18-56 yr)): 10.0 µg/mL
Tmax ([5]; Healthy Adults (18-56 yr)): 2.0 h
t1/2 ([5]; Healthy Adults (18-56 yr)): 2 to 4 h
Cmax (μg/ml) ([5]; Preterm Children (0-5 d)): 3.8 (12) μg/ml
Tmax (h) ([5]; Preterm Children (0-5 d)): 8.0 (12) h
% excreted (5 d) ([5]; Preterm Children (0-5 d)): 16.6 (5) %
t1/2 (h) ([5]; Preterm Children (0-5 d), bottom: Sato (1997)): 27.0 (5) h
t1/2 (h) ([5]; Preterm Children (0-5 d), top: Ito (1994)): 21.7 (12) h
Cmax (μg/ml) ([5]; Preterm Children (6-22 d)): 3.7 (5) μg/ml
Tmax (h) ([5]; Preterm Children (6-22 d)): 6.8 (5) h
% excreted (5 d) ([5]; Preterm Children (6-22 d)): 45.7 (1) %
t1/2 (h) ([5]; Preterm Children (6-22 d), bottom: Sato (1997)): 8.4 (1) h
t1/2 (h) ([5]; Preterm Children (6-22 d), top: Ito (1994)): 11.6 (5) h
water solubility [6]: 0.004%
apparent volume of distribution (Vzss/F) (500 mg oral dose): 1.06 L/kg
time of peak levels (PL) (adults): 2 h
steady-state concentrations (adults, 1 g 4x daily, reached on the 2nd day): 20 µg/mL
plasma PL (after a 1 g oral dose): 10 to 20 µg/mL
time to plasma PL (after a 1 g oral dose): 2 to 4 h
drug accumulation (after multiple doses): no evidence of drug accumulation
elimination half-life (in vivo): ~2 h and ≈ 2 h
fecal route of elimination, share of the dose (mainly unconjugated 3-carboxy MFA): ≤ 20%
dose excreted into the urine as glucuronide of (share of MFA dose per species): 6%
dose excreted into the urine (total, primarily as glucuronides): Approximately 52%
mean absorption (two 500 mg single oral dose studies): 30.5 µg/h/mL

Compound: Cc1cccc(Nc2ccccc2C(=O)O[C@@H]2C[C@H](C)CC[C@H]2C(C)C)c1C [MFA-menthol]
Mouse: writhing vs MFA [10]: 115%
t1/2 [h] pH 1.2 (SGF) ([8]; simulated gastric fluid): 20.8 h
ulcer index vs parent drug ([1]; in vivo): better ulcer index than the parent drug
GI risk vs MFA [1, 12]: 50%
t1/2 [h] pH 7.5 (SIF) ([11]; simulated intestinal fluid): 8.9 h
Rat: Hint paw vs MFA ([9]; relative to parent): 115%

Compound: CC(C)Cc1ccc(C(C)C(=O)O)cc1 (stereo not shown) [ibuprofen, 2-[4-(2-methylpropyl)phenyl]propanoic acid]
ulcerative index (UI) [1]: 45.8
